From US20110166078A1, “OLIGOSACCHARIDE COMPOUNDS FOR USE IN MOBILISING STEM CELLS” (ENDOTIS PHARMA, priority 2008, published 2011)
pIC50: −log10 of the molar value.

Legend:
FGF-2 = FGF-2 (Homo sapiens, UniProt P09038); experiment: FGF-2/heparin competition assay by SPR (Biacore); format: binding; conditions: 10 nM FGF-2, biotinylated heparin, Sensorchip C1
Procedure: (§1) Heparin or low molecular weight heparin (6 kDa) from SIGMA were biotinylated at the reducing end and immobilized on a Biacore sensorchip. Different concentrations of the compounds of the present invention were co-incubated at a fixed concentration of targets: FGF-2, PDGF-β, VEGF-A or SDF-1α for 30 minutes. The mixture was then injected onto the streptavidin control (control reference) and HP surfaces. Only free growth factor (GF) or chemokine, i.e. the target molecules not bound to compounds of the present invention, were trapped on the heparin surface. From the binding of free targets on heparin, the percentages of inhibition were calculated and then reported in function of compound concentrations. The plot was fitted with a four-parameter model and IC50 was calculated. The 0% inhibition value was obtained for the injection of the studied target in running-buffer, and the 100% inhibition value was obtained for the injection of the studied target co-incubated with 10 μM of low molecular weight heparin 6 kDa.
A FGF-2/heparin competition assay using the Biacore technology was performed in the following conditions: 10 nM FGF-2, biotinylated heparin, Reference Streptavidin, Sensorchip C1, PBS-T 0.02%, Regeneration NaCl 2M
IC50 values of compounds of the present invention were determined using the Biacore technology for the growth factor and chemokine/heparin competition assays that contained the following proteins: VEGF-A, SDF-1α, FGF-2 and PDGF-β.

PDGF-β = PDGF-β (Homo sapiens, UniProt P01127); experiment: PDGF-β/heparin competition assay by SPR (Biacore); format: binding; conditions: 10 nM PDGF-β, biotinylated heparin, Sensorchip C1
Procedure: as §1, with “kDa. A PDGF-β/heparin competition assay using the Biacore technology was performed using the following conditions: 10 nM PDGF-β, biotinylated heparin, Reference Streptavidin, Sensorchip C1, HBS-P, Regeneration NaCl 2M. IC50 values of compounds of the present invention were determined using the Biacore technology for the growth factor and chemokine/heparin competition assays that contained the following proteins: VEGF-A, SDF-1α, FGF-2 and PDGF-β.” for “kDa.”

[1] = tested on: PDGF-β-induced NHDF proliferation; experiment: PDGF-β-induced NHDF proliferation assay; format: cell-based, human; conditions: PDGF-β 10 ng/ml; FIGS. 8-12
Procedure: The activities of the compounds of the present invention were tested using a proliferation assay, such as the one described by N. Ali et al., J Pharmacol Sci, 2005, 98, 130-141. A defined number of cells is seeded in each well of a culture plate. In order to stimulate cell proliferation, a growth factor is added in some wells, while others remain unstimulated (basal proliferation conditions). To monitor the effects of substances of interest (oligosaccharides compounds according to the present invention) on basal and growth factor-induced cell proliferation, substances of interest are added at different concentrations (i.e. 0.1, 0.3, 1, 3, 10 or 30 μM) in presence or absence of the growth factor, respectively. After an incubation period of 24 hours, the total number of cells is estimated in all samples (generally through an indirect method, such as incorporation of radioactivity into the newly synthesised DNA or colorimetric assays based on cellular enzyme activities or metabolite production). The total number of cells for the control sample in which no substance of interest nor growth factor have been added is set to 1. The total number of cells in all the other samples is compared to this value in order to obtain the relative proliferation index.
Typically, cells are seeded in 48 or 96-well plates. After 2 h (i.e. the time required for cells to adhere to the support) the normal culture media is replaced by a minimal essential culture media in which cells are grown for 24 h (starvation period). This step is used to reduce cell growth (cell metabolism is slowed down in order to better visualise the growth factor stimulation effect) before adding an angiogenic protein, such as a growth factor i.e. FGF-2 or PDGF-β. No growth factor is added in basal proliferation conditions (independently of the presence or absence of the oligosaccharide of the present invention). To evaluate the inhibition of the oligosaccharide compounds according to the present invention on cell proliferation, the angiogenic protein (growth factor) is added at a fixed concentration (from 5 ng/ml to 10 ng/ml) with increasing amounts of oligosaccharide compounds (0.1, 0.3, 1, 3, 10 or 30 μM), which allows the IC50 value to be estimated (i.e. the oligosaccharide concentration at which the stimulatory effect of the growth factor is inhibited by 50%).
Following addition of the angiogenic protein (growth factor) over a 24 h stimulation period, a commercial reagent containing a substrate for a cellular enzyme is added and incubated for couple of hours. The degradation of the substrate by the enzyme leads to the production of a coloured product which is titrated by absorbance measurement. […]

FGF-2, sequence (P09038 143-288, species assumed): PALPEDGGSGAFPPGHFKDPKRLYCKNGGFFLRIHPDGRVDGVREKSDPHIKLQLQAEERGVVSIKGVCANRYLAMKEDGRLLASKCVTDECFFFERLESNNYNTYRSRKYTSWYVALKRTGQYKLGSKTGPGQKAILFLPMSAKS
PDGF-β, sequence (P01127 82-190 limits assumed): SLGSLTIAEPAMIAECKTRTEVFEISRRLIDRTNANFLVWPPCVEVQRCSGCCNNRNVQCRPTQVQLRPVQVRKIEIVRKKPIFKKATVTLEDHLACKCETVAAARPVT

SMILES: C#CCCCOC1OC(COS(=O)(=O)[O-])C(OC2OC(C(=O)[O-])C(OC3OC(COS(=O)(=O)[O-])C(OC4OC(C(=O)[O-])C(OC5OC(COS(=O)(=O)[O-])C(OC6OC(C(=O)[O-])C(OCc7ccccc7)C(OCc7ccccc7)C6OS(=O)(=O)[O-])C(OCc6ccccc6)C5NS(=O)(=O)[O-])C(OCc5ccccc5)C4OS(=O)(=O)[O-])C(OCc4ccccc4)C3NS(=O)(=O)[O-])C(OCc3ccccc3)C2OS(=O)(=O)[O-])C(OCc2ccccc2)C1NS(=O)(=O)[O-].[Na+].[Na+].[Na+].[Na+].[Na+].[Na+].[Na+].[Na+].[Na+].[Na+].[Na+].[Na+] (stereo not drawn) [Compound 239]
- pIC50 (FGF-2): 8.35
- pIC50 (PDGF-β): 7.07
- inhibition of PDGF-β-induced NHDF proliferation [1]: inhibit PDGF-β proliferation (starting in the micromolar range)

SMILES: C#CCCCOC1OC(COS(=O)(=O)[O-])C(OC2OC(C(=O)[O-])C(OC3OC(COS(=O)(=O)[O-])C(OC4OC(C(=O)[O-])C(OC5OC(COS(=O)(=O)[O-])C(OC6OC(C(=O)[O-])C(OC7OC(COS(=O)(=O)[O-])C(OC8OC(C(=O)[O-])C(OCc9ccccc9)C(OCc9ccccc9)C8OS(=O)(=O)[O-])C(OCc8ccccc8)C7NS(=O)(=O)[O-])C(OCc7ccccc7)C6OS(=O)(=O)[O-])C(OCc6ccccc6)C5NS(=O)(=O)[O-])C(OCc5ccccc5)C4OS(=O)(=O)[O-])C(OCc4ccccc4)C3NS(=O)(=O)[O-])C(OCc3ccccc3)C2OS(=O)(=O)[O-])C(OCc2ccccc2)C1NS(=O)(=O)[O-].[Na+].[Na+].[Na+].[Na+].[Na+].[Na+].[Na+].[Na+].[Na+].[Na+].[Na+].[Na+].[Na+].[Na+].[Na+].[Na+] (stereo not drawn) [Compound 240]
- pIC50 (FGF-2): 8.44
- pIC50 (PDGF-β): 7.96
- inhibition of PDGF-β-induced NHDF proliferation [1]: inhibit PDGF-β proliferation (starting in the micromolar range)
